ChEMBL document CHEMBL5154803, “Spermine-Conjugated Short Proline-Rich Lipopeptides as Broad-Spectrum Intracellular Targeting Antibacterial Agents” (J Med Chem, 2022)
Values after ≈ are worked out from the molar mass of the structure shown. Active and inactive are the calls of the source. The rule behind the calls is not given here. Where a SMILES comes first, the peptide text is derived from it. The star is where a group is joined. Myristoyl = CCCCCCCCCCCCCC(=O)*; Decanoyl = CCCCCCCCCC(=O)*; Spermine = NCCCNCCCCNCCCN*

How the values were obtained:
Escherichia coli [1] = assay: Antibacterial activity against Escherichia coli ATCC 25922 assessed as reduction in bacterial growth measured after 18 hrs by broth microdilution method; format: functional
Pseudomonas aeruginosa = assay: Antibacterial activity against Pseudomonas aeruginosa ATCC BAA-427 assessed as reduction in bacterial growth measured after 18 hrs by broth microdilution method; format: functional
Acinetobacter baumannii = assay: Antibacterial activity against Acinetobacter baumannii i ATCC 19606 assessed as reduction in bacterial growth measured after 18 hrs by broth microdilution method; format: functional
Staphylococcus aureus [2] = assay: Antibacterial activity against Staphylococcus aureus ATCC 25923 assessed as reduction in bacterial growth measured after 18 hrs by broth microdilution method; format: functional
Staphylococcus aureus [3] = assay: Antibacterial activity against methicillin-resistant Staphylococcus aureus ATCC 33591 assessed as reduction in bacterial growth measured after 18 hrs by broth microdilution method; format: functional
Staphylococcus aureus [4] = assay: Antibacterial activity against MDR-methicillin-resistant Staphylococcus aureus ATCC BAA-44 assessed as reduction in bacterial growth measured after 18 hrs by broth microdilution method; format: functional
[5] = tested on: Staphylococcus epidermidis; assay: Antibacterial activity against Staphylococcus epidermidis ATCC 12228 assessed as reduction in bacterial growth measured after 18 hrs by broth microdilution method; format: functional
[6] = tested on: Staphylococcus epidermidis; assay: Antibacterial activity against methicillin-resistant Staphylococcus epidermidis ATCC 51625 assessed as reduction in bacterial growth measured after 18 hrs by broth microdilution method; format: functional
Cell membrane [7] = assay: Disruption of bacterial cell membrane in Escherichia coli ATCC 25922 at 5XMIC by SEM analysis; format: subcellular
Cell membrane [8] = assay: Disruption of bacterial cell membrane in Escherichia coli ATCC 25922 assessed as proportion of bacteria with intact cell membrane at 5X MIC incubated for 1 hr by PI staining based flow cytometric analysis (reference value: 99.3%); format: subcellular
Cell membrane [9] = assay: Disruption of bacterial cell membrane in Escherichia coli ATCC 25922 assessed as proportion of bacteria with damaged cell membrane at 5X MIC incubated for 1 hr by PI staining based flow cytometric analysis (reference value: 0.7%); format: subcellular
Staphylococcus aureus [10] = assay: In vivo antibacterial activity against Staphylococcus aureus ATCC 25923 infected in BALB/c mouse model assessed as reduction of bacterial load in spleen at 100 mg/kg, ip administered as single dose measured after 24 hrs by colony counting based analysis; format: functional, organism-based
Staphylococcus aureus [11] = assay: In vivo antibacterial activity against Staphylococcus aureus ATCC 25923 infected in BALB/c mouse model assessed as reduction of bacterial load in liver at 100 mg/kg, ip administered as single dose measured after 24 hrs by colony counting based analysis; format: functional, organism-based
Staphylococcus aureus [12] = assay: In vivo antibacterial activity against Staphylococcus aureus ATCC 25923 infected in BALB/c mouse model assessed as reduction of bacterial load in kidney at 100 mg/kg, ip administered as single dose measured after 24 hrs by colony counting based analysis; format: functional, organism-based
Erythrocyte = assay: Hemolytic activity against human RBC assessed as hemolysis upto 100 uM incubated for 1 hr by ELISA plate reader analysis; format: toxicity, cell-based
[13] = Cytotoxicity against human THP-1 cells assessed as cell viability at 50 uM by MTT assay; format: toxicity, cell-based; settings: read-out: Activity
Escherichia coli [14] = assay: Antibacterial activity against Escherichia coli ATCC 25922 assessed as reduction in bacterial growth measured after 18 hrs in presence of 10% v/v human serum in MHB by broth microdilution method; format: functional; settings: ATCC 25922, Serum

Row | Compound | MIC (Escherichia coli [1]) [µM] | MIC (Pseudomonas aeruginosa) [µM] | MIC (Acinetobacter baumannii) [µM] | MIC (Staphylococcus aureus [2]) [µM] | MIC (Staphylococcus aureus [3]) [µM] | MIC (Staphylococcus aureus [4]) [µM] | MIC [5] [µM] | MIC [6] [µM] | also measured
1 | CCCCCCCCCC(=O)NCCCNCCCCNCCCN | > 200 | > 200 | > 200 | > 200 | > 200 | > 200 | > 200 | > 200 | –
2 | CCCCCCCCCCCC(=O)NCCCNCCCCNCCCN | > 200 | > 200 | > 200 | > 200 | > 200 | > 200 | > 200 | > 200 | –
3 | CC[C@H](C)[C@H](NC(=O)CN)C(=O)NCC(=O)N[C@@H](C)C(=O)N[C@H](C(=O)N[C@@H](CC(C)C)C(=O)N[C@@H](CCCCN)C(=O)N[C@H](C(=O)N[C@@H](CC(C)C)C(=O)N[C@H](C(=O)N[C@H](C(=O)NCC(=O)N[C@@H](CC(C)C)C(=O)N1CCC[C@H]1C(=O)N[C@@H](C)C(=O)N[C@@H](CC(C)C)C(=O)N[C@H](C(=O)N[C@@H](CO)C(=O)N[C@@H](Cc1c[nH]c2ccccc12)C(=O)N[C@H](C(=O)N[C@@H](CCCCN)C(=O)N[C@@H](CCCNC(=N)N)C(=O)N[C@@H](CCCCN)C(=O)N[C@@H](CCCNC(=N)N)C(=O)N[C@@H](CCC(N)=O)C(=O)N[C@@H](CCC(N)=O)C(N)=O)[C@@H](C)CC)[C@@H](C)CC)[C@@H](C)O)[C@@H](C)O)C(C)C)C(C)C | – | – | – | – | – | – | – | – | Activity (Cell membrane [7]): Active; Activity (Cell membrane [8]): 36%; Activity (Cell membrane [9]): 64%
4 | C[C@H]1COc2c(N3CCN(C)CC3)c(F)cc3c(=O)c(C(=O)O)cn1c23 | – | – | – | – | – | – | – | – | Activity (Staphylococcus aureus [10]): Active; Activity (Staphylococcus aureus [11]): Active; Activity (Staphylococcus aureus [12]): Active
5 | CCCCCCCCCC(=O)N1CCC[C@H]1C(=O)N[C@@H](CCCNC(=N)N)C(=O)N1CCC[C@H]1C(=O)N[C@@H](CCCNC(=N)N)C(=O)N1CCC[C@H]1C(=O)N1CCC[C@H]1C(=O)N[C@@H](CCCNC(=N)N)C(=O)O (Decanoyl-PRPRPPR-OH) | > 200 | > 200 | > 200 | > 200 | > 200 | > 200 | > 200 | > 200 | –
6 | N=C(N)NCCC[C@H](NC(=O)[C@@H]1CCCN1C(=O)[C@@H]1CCCN1C(=O)[C@H](CCCNC(=N)N)NC(=O)[C@@H]1CCCN1C(=O)[C@H](CCCNC(=N)N)NC(=O)[C@@H]1CCCN1)C(=O)NCCCNCCCCNCCCN (H-PRPRPPR-Spermine) | > 200 | > 200 | > 200 | 200 (≈ 212 µg/mL) | > 200 | > 200 | > 200 | > 200 | –
7 | CCCCCCCCCCCCCC(=O)N1CCC[C@H]1C(=O)N[C@@H](CCCNC(=N)N)C(=O)N1CCC[C@H]1C(=O)N[C@@H](CCCNC(=N)N)C(=O)N1CCC[C@H]1C(=O)N1CCC[C@H]1C(=O)N[C@@H](CCCNC(=N)N)C(=O)NCCCNCCCCNCCCN (Myristoyl-PRPRPPR-Spermine) | 3.1 (≈ 3.94 µg/mL) | 6.2 (≈ 7.87 µg/mL) | 6.2 (≈ 7.87 µg/mL) | 3.1 (≈ 3.94 µg/mL) | 1.5 (≈ 1.9 µg/mL) | 1.5 (≈ 1.9 µg/mL) | 1.5 (≈ 1.9 µg/mL) | 1.5 (≈ 1.9 µg/mL) | Activity (Erythrocyte): Toxic; viability at 50 µM [13]: 40%; MIC (Escherichia coli [14]): 3.1 µM
8 | CC1(C)S[C@@H]2[C@H](NC(=O)[C@H](N)c3ccccc3)C(=O)N2[C@H]1C(=O)O [AMPICILLIN] | – | – | – | – | – | 125 (≈ 43.7 µg/mL) | – | – | –
9 | O=C(N[C@H](CO)[C@H](O)c1ccc([N+](=O)[O-])cc1)C(Cl)Cl [CHLORAMPHENICOL] | – | – | – | – | – | 1000 (≈ 323 µg/mL) | – | – | –
10 | NC[C@@H]1O[C@H](O[C@H]2[C@@H](O)[C@H](O[C@@H]3[C@@H](O)[C@H](N)C[C@H](N)[C@H]3O[C@H]3O[C@H](CN)[C@@H](O)[C@H](O)[C@H]3N)O[C@@H]2CO)[C@H](N)[C@@H](O)[C@@H]1O [FRAMYCETIN] | – | – | – | – | – | 125 (≈ 76.8 µg/mL) | – | – | –
11 | CO[C@H]1/C=C/O[C@@]2(C)Oc3c(C)c(O)c4c(O)c(c(/C=N/N5CCN(C)CC5)c(O)c4c3C2=O)NC(=O)/C(C)=C\C=C\[C@H](C)[C@H](O)[C@@H](C)[C@@H](O)[C@@H](C)[C@H](OC(C)=O)[C@@H]1C [RIFAMPIN] | – | – | – | – | – | 1.25 (≈ 1.03 µg/mL) | – | – | –
12 | CN(C)[C@@H]1C(O)=C(C(N)=O)C(=O)[C@@]2(O)C(O)=C3C(=O)c4c(O)cccc4[C@@](C)(O)[C@H]3C[C@@H]12 [TETRACYCLINE] | – | – | – | – | – | 62.5 (≈ 27.8 µg/mL) | – | – | –
13 | CN[C@H](CC(C)C)C(=O)N[C@H]1C(=O)N[C@@H](CC(N)=O)C(=O)N[C@H]2C(=O)N[C@H]3C(=O)N[C@H](C(=O)N[C@H](C(=O)O)c4cc(O)cc(O)c4-c4cc3ccc4O)[C@H](O)c3ccc(c(Cl)c3)Oc3cc2cc(c3O[C@@H]2O[C@H](CO)[C@@H](O)[C@H](O)[C@H]2O[C@H]2C[C@](C)(N)[C@H](O)[C@H](C)O2)Oc2ccc(cc2Cl)[C@H]1O [VANCOMYCIN] | 200 (≈ 290 µg/mL) | – | 56.8 (≈ 82.3 µg/mL) | 0.4 (≈ 0.58 µg/mL) | 0.8 (≈ 1.16 µg/mL) | 0.8 (≈ 1.16 µg/mL) | 0.4 (≈ 0.58 µg/mL) | 0.8 (≈ 1.16 µg/mL) | –
14 | GENTAMICIN | – | – | – | – | – | 2.5 | – | – | –
15 | H-PRPRPPR-OH | > 200 | > 200 | > 200 | > 200 | > 200 | > 200 | > 200 | > 200 | –
